Measurements from patent US5431922A (Bristol-Myers Squibb Company, priority 1993, dated 1995).

Key:
rat = experiment: Rat forced swim test (antidepressant screening); format: in vivo
[1] = pharmacologic testing; cited from earlier work
[2] = tested on: diazepam-withdrawn animals; conditions: cited from earlier work
[3] = in vivo, cited from earlier work
[4] = Johansson et al. 1971; cited from earlier work
[5] = tested on: patients undergoing diazepam-withdrawal; conditions: human, in vivo; cited from earlier work

c1cnc(N2CCNCC2)nc1 [Example 1-PP, 1-(2-pyrimidinyl)piperazine]
blockade of activity of intracerebral buspirone in forced swim test (rat; systemic administration of 1-PP): blocked | anxiolytic potency relative to buspirone [1]: 20-25% | effect on social interaction ([2]; diazepam-naive subjects): had not shown any effect | effect in social interaction paradigm ([2]; diazepam-withdrawn animals): anxiogenic effect | elimination (in words) [3]: much slower elimination

C=CCc1ccccc1OCC(O)CNC(C)C (stereo not shown) [alprenolol]
metabolism in controlled/extended release form vs conventional tablets (in words) [4]: more complete when it was administered in a controlled/extended release form than in conventional tablets

O=C1CC2(CCCC2)CC(=O)N1CCCCN1CCN(c2ncccn2)CC1 [Buspirone, 8-[4-[4-(2-pyrimidinyl)1-piperazinyl]butyl]-8-azaspiro(4,5)-decane-7,9-dione]
activity in rat forced swim test (rat; given intracerebrally): active | activity in rat forced swim test (rat; given systemically): inactive | treatment of patients undergoing diazepam-withdrawal [5]: failed to adequately treat patients undergoing diazepam-withdrawal | biological half-life ([3]; human): 2-11 hours
